The source of these data is ChEMBL document CHEMBL4665629, “An optimised series of substituted N-phenylpyrrolamides as DNA gyrase B inhibitors” (Eur J Med Chem, 2019).

In general, IC50 refers to the concentration needed to halve the response being measured.

The test system of data set [1] is Escherichia coli. Briefly: Antibacterial activity against efflux pump d effect ive Escherichia coli JW5503 harbouring tolC mutant assessed as bacterial growth inhibition at 50 uM incubated for 24 hrs by CLSI protocol based broth microdilution assay relative to control. Type of data set: functional. (Broth dilution looks for growth in wells or tubes with falling amounts of substance.)

Data set [2] relates to Escherichia coli. Briefly: Antibacterial activity against outer membrane impaired Escherichia coli JD17464 harboring lpxC mutant assessed as bacterial growth inhibition at 50 uM incubated for 24 hrs by CLSI protocol based broth microdilution assay relative to control. Type of data set: functional.
The subject of data set [3] is Pseudomonas aeruginosa. Briefly: Antibacterial activity against Pseudomonas aeruginosa ATCC 27853 assessed as bacterial growth inhibition at 50 uM incubated for 24 hrs by CLSI protocol based broth microdilution assay relative to control. Type of data set: functional.
For data set [4], the system named is Staphylococcus aureus. Briefly: Antibacterial activity against Staphylococcus aureus ATCC 29213 assessed as bacterial growth inhibition at 50 uM incubated for 24 hrs by CLSI protocol based broth microdilution assay relative to control. Type of data set: functional.
The subject of data set [5] is Klebsiella pneumoniae. Briefly: Antibacterial activity against Klebsiella pneumoniae ATCC 700603 assessed as bacterial growth inhibition at 50 uM incubated for 24 hrs by CLSI protocol based broth microdilution assay relative to control. Type of data set: functional.
Data set [6] relates to Escherichia coli. Briefly: Antibacterial activity against Escherichia coli ATCC 25922 assessed as bacterial growth inhibition at 50 uM incubated for 24 hrs by CLSI protocol based broth microdilution assay relative to control. Type of data set: functional.
Data set [7] relates to Enterococcus faecium. Briefly: Antibacterial activity against Enterococcus faecium ATCC 35667 assessed as bacterial growth inhibition at 50 uM incubated for 24 hrs by CLSI protocol based broth microdilution assay relative to control. Type of data set: functional.
Data set [8] has as its system Enterococcus faecalis. Briefly: Antibacterial activity against Enterococcus faecalis ATCC 29212 assessed as bacterial growth inhibition at 50 uM incubated for 24 hrs by CLSI protocol based broth microdilution assay relative to control. Type of data set: functional.
Data set [9] has as its system Klebsiella aerogenes. Briefly: Antibacterial activity against Enterobacter aerogenes ATCC 13408 assessed as bacterial growth inhibition at 50 uM incubated for 24 hrs by CLSI protocol based broth microdilution assay relative to control. Type of data set: functional.
For data set [10], the system named is Acinetobacter baumannii. Briefly: Antibacterial activity against Acinetobacter baumannii ATCC 19606 assessed as bacterial growth inhibition at 50 uM incubated for 24 hrs by CLSI protocol based broth microdilution assay relative to control. As to conditions: ATCC 19606 = CIP 70.34 = JCM 6841. Type of data set: functional.
The test system of data set [11] is Escherichia coli. Briefly: Antibacterial activity against efflux pump d effect ive Escherichia coli JW5503 harbouring tolC mutant assessed as minimum inhibitory concentration required for >=90% inhibition of bacterial growth by CLSI protocol based broth microdilution assay. Type of data set: functional.
The test system of data set [12] is Staphylococcus aureus. Briefly: Antibacterial activity against Staphylococcus aureus ATCC 29213 assessed as minimum inhibitory concentration required for >=90% inhibition of bacterial growth by CLSI protocol based broth microdilution assay. Type of data set: functional.
In data set [13] the test system is Enterococcus faecalis. Briefly: Antibacterial activity against Enterococcus faecalis ATCC 29212 assessed as minimum inhibitory concentration required for >=90% inhibition of bacterial growth by CLSI protocol based broth microdilution assay. Type of data set: functional.
The target of data set [14] is Topoisomerase IV (Staphylococcus aureus) (UniProt P0C1U9+P0C1S7). Briefly: Inhibition of Staphylococcus aureus DNA topoisomerase 4 assessed as residual activity at 1 uM using biotinylated oligonucleotide as substrate incubated for 30 mins in presence of ATP by fluorescence-based microplate reader assay relative to control. Type of data set: protein-complex assay.
A short description of data set [15]: Inhibition of Escherichia coli DNA topoisomerase 4 assessed as residual activity at 1 uM using biotinylated oligonucleotide as substrate incubated for 30 mins in presence of ATP by fluorescence-based microplate reader assay relative to control.
Data set [16] has as its target DNA gyrase (Staphylococcus aureus) (UniProt P0A0K8+P20831). Briefly: Inhibition of Staphylococcus aureus DNA gyrase assessed as residual activity at 1 uM using biotinylated oligonucleotide as substrate incubated for 30 mins in presence of ATP by fluorescence-based microplate reader assay relative to control. Type of data set: protein-complex assay.
Data set [17] has as its target T1, DNA gyrase (Escherichia coli, UniProt P0AES4+P0AES6). Briefly: Inhibition of Escherichia coli DNA gyrase using biotinylated oligonucleotide as substrate incubated for 30 mins in presence of ATP by fluorescence-based microplate reader assay. Type of data set: protein-complex assay.
The nature of data set [18]: Inhibition of Escherichia coli DNA GyraseB incubated for 10 mins followed by ATP substrate addition by coupled spectrophotometric analysis.
Data set [19] deals with Escherichia coli. Briefly: Antibacterial activity against Escherichia coli assessed as bacterial growth inhibition incubated for 18 to 24 hrs by alamar blue assay. Type of data set: functional. As to conditions: time hrs 18-24. In general terms: Alamar Blue is a resazurin reagent that responds to reducing activity.
Data set [20] concerns Staphylococcus aureus. Briefly: Antibacterial activity against Staphylococcus aureus assessed as bacterial growth inhibition incubated for 18 to 24 hrs by alamar blue assay. Type of data set: functional. As to conditions: time hrs 18-24.
Data set [21] is described as follows: Inhibition of Escherichia coli DNA topoisomerase 4.
Data set [22] deals with T1, DNA gyrase. Briefly: Inhibition of Escherichia coli DNA gyrase (A2B2 tetramer) incubated for 60 mins in presence of ATP by malachite green reagent based spectrophotometric analysis. Type of data set: protein-complex assay.
Data set [23] deals with Enterococcus faecalis. Briefly: Antibacterial activity against Enterococcus faecalis ATCC 29212 assessed as bacterial growth inhibition by CLSI protocol based broth dilution or agar dilution method. Type of data set: functional.
The nature of data set [24]: Cytotoxicity against HUVEC assessed as reduction in cell proliferation at 50 uM after 72 hrs by MTS assay relative to control. Type of data set: cell-based. As to conditions: human, HUVEC cells, read-out: Activity. For orientation: Tetrazolium dyes change colour on reduction, which living cells bring about.
The nature of data set [25]: Cytotoxicity against human HepG2 cells assessed as reduction in cell proliferation at 50 uM after 72 hrs by MTS assay relative to control. Type of data set: cell-based. As to conditions: read-out: Activity.
The target in data set [26] is Topoisomerase IV (Staphylococcus aureus, UniProt P0C1S7+P0C1U9). Briefly: Inhibition of Staphylococcus aureus DNA topoisomerase 4 using biotinylated oligonucleotide as substrate incubated for 30 mins in presence of ATP by fluorescence-based microplate reader assay. Type of data set: protein-complex assay.
Data set [27] in a line: Inhibition of Escherichia coli DNA topoisomerase 4 using biotinylated oligonucleotide as substrate incubated for 30 mins in presence of ATP by fluorescence-based microplate reader assay.
Data set [28] addresses DNA gyrase (Staphylococcus aureus, UniProt P0A0K8+P20831). Briefly: Inhibition of Staphylococcus aureus DNA gyrase using biotinylated oligonucleotide as substrate incubated for 30 mins in presence of ATP by fluorescence-based microplate reader assay. Type of data set: protein-complex assay.
Data set [29] concerns Enterococcus faecium. Briefly: Antibacterial activity against Enterococcus faecium ATCC 35667 assessed as minimum inhibitory concentration required for >=90% inhibition of bacterial growth by CLSI protocol based broth microdilution assay. Type of data set: functional.
The subject of data set [30] is Escherichia coli. Briefly: Antibacterial activity against Escherichia coli MG1655 harboring GyrB R136C mutant assessed as minimum inhibitory concentration required for >=90% inhibition of bacterial growth in presence of 50 ug/ml phenylalanine-arginine beta-naphthylamide. Type of data set: functional.
The test system of data set [31] is Escherichia coli. Briefly: Antibacterial activity against Escherichia coli MG1655 harboring […] mutant assessed as minimum inhibitory concentration required for >=90% inhibition of bacterial growth in presence of 50 ug/ml phenylalanine-arginine beta-naphthylamide. Type of data set: functional.
In data set [32] the test system is Escherichia coli. Briefly: Antibacterial activity against Escherichia coli MG1655 harboring […]/D87N mutant assessed as minimum inhibitory concentration required for >=90% inhibition of bacterial growth in presence of 50 ug/ml phenylalanine-arginine beta-naphthylamide. Type of data set: functional.
Data set [33] concerns Escherichia coli. Briefly: Antibacterial activity against Escherichia coli MG1655 harboring […]/D87N and ParC S80I mutants assessed as minimum inhibitory concentration required for >=90% inhibition of bacterial growth in presence of 50 ug/ml phenylalanine-arginine beta-naphthylamide. Type of data set: functional.
For data set [34], the system named is Escherichia coli. Briefly: Antibacterial activity against Escherichia coli MG1655 harboring […]/D87N and ParC S80I/E84G mutants assessed as minimum inhibitory concentration required for >=90% inhibition of bacterial growth in presence of 50 ug/ml phenylalanine-arginine beta-naphthylamide. Type of data set: functional.
Data set [35] relates to Klebsiella pneumoniae. Briefly: microbe, parasite or virus in culture. As to conditions: 700603.
The test system of data set [36] is Klebsiella aerogenes. Briefly: microbe, parasite or virus in culture. As to conditions: ATCC 13408.
Data set [37] has as its system Acinetobacter baumannii. Briefly: microbe, parasite or virus in culture. As to conditions: ATCC 19606 = CIP 70.34 = JCM 6841.

In brackets after ≈: the same amount, converted by molar mass.

In the case of `Cc1[nH]c(C(=O)Nc2ccc(-n3nn[nH]c3=O)cc2)c(Cl)c1Cl`, the inhibition at 50 µM in [1] was 100%; in data set [2], -1%; in data set [3] it was -3%; in data set [4] it was 99%; in data set [5], -2%; in data set [6], 3%. Further, the inhibition at 50 µM in data set [7] is 53%; in data set [8] it was 99%; in [9], -2%; in [10], 1%. Further, the results for the MIC in [11], in data set [12] and in data set [13] were 3.13 µM (≈ 1.11 µg/mL), 50 µM (≈ 17.7 µg/mL) and 12.5 µM (≈ 4.41 µg/mL), respectively. Moreover, the results for the Activity in data set [14], in [15] and in data set [16] were 85%, 94% and 47%, respectively. Moreover, the IC50 in data set [17] amounted to 77 nM.
For `CNc1cc(F)cc2c1[nH]c1nc(Oc3cnc(C)nc3)nc(N3C[C@@H]4[C@H](N)C[C@]4(C)C3)c12`, in [18], half-maximal inhibition (IC50) was put at 0.3 nM. The MIC in data set [19] was 0.06 µg/mL (≈ 0.134 µM); in data set [20], 0.002 µg/mL (≈ 0.00446 µM).
As for `CCNC(=O)Nc1nc2cc(-c3cnc(N4CCC(C)(C(=O)O)CC4)nc3)cc(-c3ccccn3)c2s1`, the half-inhibitory concentration (IC50) in data set [21] worked out at 46 nM; in data set [22], 4.1 nM. The MIC in [23] came out at 0.03 µg/mL (≈ 0.058 µM).
On to `Cc1[nH]c(C(=O)Nc2ccc(C(=O)NCC(=O)O)cc2O[C@H]2CCNC2)c(Cl)c1Cl`, for which the inhibition at 72 h, 50 µM in data set [24] came to 130%; in data set [25], 46%. Further, the inhibition at 50 µM was -1% in data set [1]; 18% in [2]; -28% in data set [3]; -6% in [4]; -3% in data set [5]; 11% in [6]. Further, the inhibition at 50 µM in data set [7] is 14%; in data set [9], -11%; in data set [10], -1%. Moreover, the half-maximal inhibitory concentration (IC50) was determined as 4300 nM in data set [26], 16000 nM in data set [27], 290 nM in [28] and 31 nM in [17].
Regarding `Cc1[nH]c(C(=O)Nc2ccc(C(=O)N[C@H](C)c3n[nH]c(=S)o3)cc2OC(C)C)c(Cl)c1Cl`, the inhibition at 72 h, 50 µM was 85% in [24] and 80% in [25]. The inhibition at 50 µM in data set [1] is 40%; in [2] it was 1%; in data set [3] it was 1%; in [4] it was 7%; in data set [5] it was 5%; in data set [6], 21%. In addition, the inhibition at 50 µM stood at 79% in [7], 101% in data set [8], 10% in data set [9] and 6% in data set [10]. Besides, the results for the MIC in [29] and in [13] were more than 125 µM and 6.25 µM (≈ 3.11 µg/mL), respectively. The Activity in [14] was 90%; in [15], 92%; in [16], 59%. Further, in data set [17], the concentration for half-maximal inhibition (IC50) turned out to be 190 nM.
As for `O=C(O)c1cn(C2CC2)c2cc(N3CCNCC3)c(F)cc2c1=O` [CIPROFLOXACIN], the MIC in data set [30] is 0.01 µM; in data set [31] it was 0.01 µM; in data set [32] it was 0.19 µM; in data set [33], 8 µM; in data set [34], more than 32 µM; in [35] it was 0.05 µM (≈ 0.0166 µg/mL). Besides, the values for the MIC in data set [36] and in [37] were 0.113 µM (≈ 0.0374 µg/mL) and 3.62 µM (≈ 1.2 µg/mL), respectively.
Take `CCOC(=O)c1cn(CC)c2cc(NC(=O)c3[nH]c(C)c(Cl)c3Cl)ccc2c1=O`: the inhibition at 72 h, 50 µM in data set [24] was determined as 88%; in data set [25], 90%. Moreover, the inhibition at 50 µM in data set [1] is 11%; in data set [2] it was -2%; in data set [3], -3%; in data set [4], -3%; in [5] it was 9%; in data set [6], 12%. Further, the inhibition at 50 µM was 37% in data set [7], -7% in [8], 5% in data set [9] and 3% in data set [10]. Further, the half-inhibitory concentration (IC50) in data set [17] came out at 53 nM.
